Results taken from US20180356397A1, “MIMICRY OF NEUROINFLAMMATORY MICROENVIRONMENTS AND METHODS OF USE AND MANUFACTURING THEREOF” (priority 2017, published 2018).

What was measured:
[1] = test system: neutrophils co-cultured with A-beta activated microglia; experiment: neutrophil recruitment toward soluble A-beta activated microglia (co-culture in microfluidic device); type: cell-based, human; conditions: for recruiting of neutrophils in the recapitulated AD environment: microglia-derived chemokines by A-beta stimulation; for higher neutrophil migration in central chamber: soluble A-beta 2.2 uM, 6 hours
From the text: Microglial cells are resident brain immune cells and stimulated by soluble A-beta42, which is a signature of human AD neurotoxic peptide. Based on our previous observation of neutrophil accumulation on A-beta plaques in in vivo, we hypothesize that A-beta activated microglial cells has a critical role in recruiting neutrophil. Stimulated microglial cells can release various types of chemokines and/or cytokines to increase inflammatory behavior or to clear A-beta in inflamed region. Furthermore, those secreted chemokines and/or cytokines can recruit other cell types including peripheral immune cells (FIG. 9A). To modulate this whole process, we established an in vitro AD brain-blood model (ADBBM) using microglia and neutrophil to mimic the brain microenvironment. To accommodate the different cells separately in a single microfluidic platform, we employed mechanically separated two chambers, which are connected through neutrophil specific migration channels (10×5×500 μm in width, height, and length) forming gradients of chemokines and/or cytokines (FIG. 9B).
Compared to a parallel configuration having equal surface areas for cell loading and cell collection, the asymmetric configuration of the current microfluidic device 10 has a small central cell collecting compartment (central chamber 30), which is smaller than a large annular cell loading compartment (annular chamber 50) by a factor of 3, 4, 5, 6, 7, 8, 9, 10 or greater. […] This enhances the gradient formation and detection of recruitment. The long and thin migration channels 60 can block spontaneous entrance of inactivated neutrophil through mechanical constraints. Using this platform, we could culture microglial cells for extended periods to accumulate enough soluble factors and could observe neutrophil signature movement at single cell resolution, in real-time. Red membrane dye stained microglial cells plated first in central chamber 30 and incubated for 3 days with soluble A-beta to modulate chemokine/cytokine enriched AD microenvironment. Freshly isolated neutrophil labeled with green membrane dye plated on annular chamber 50 and incubated under microscope to observe their movement and accumulation in central chamber 30. Precise numbers of neutrophils are reproducibly loaded and uniformly distributed in annular chamber 50 and this design allows us to evaluate the response of neutrophil to various types of chemokines and/or cytokines. We tested 200 independent conditions at the same time, by using real time imaging of process in an array of twenty-five formatted on a single well plate 140 or an array of one-hundred nineteen formatted single well plate 140 (FIG. 7 and FIG. 8).
To validate the dependency of neutrophil migration toward soluble A-beta activated microglia, microglial cells plated on central chamber 30 with various cell numbers (5,000, 10,000, 20,000 cells). Microglial cells are pre-labeled with membrane dye according to manufacturer's protocol to observe their morphology change. After 24 hour incubation of microglia alone, prepared soluble A-beta (2.2 uM) with reduced 1% FBS Prigrowlll media were changed to incubate further for 48 hours. After 48 hours, freshly isolated neutrophil labeled with green membrane dye plated on annular chamber 50 and incubated on microscopic real time imaging chamber. Neutrophil (green) migration could be observed toward soluble A-beta activated microglia (red) cultured central chamber 30 after 6 hours (FIG. 11A). 2.4-, 1.2-times higher neutrophil migration could be observed in central chamber 30 in response to 10,000 and 20,000 cultured microglia in central chamber 30 by showing the dependency of neutrophil recruitment in cell numbers. […] By utilizing high-resolution and spatiotemporal controlled microscopic imaging method, we also can quantify the persistent movement of microglial cells in various stimulations. […]

U87 glioma line = experiment: glioma migration/invasiveness in microfluidic device, alone or in co-culture with microglia; type: cell-based; conditions: glioma cells cultured alone
From the text: Here, we reconstituted a microenvironment of boosted brain tumor invasion by inducing glioma migration by using EGF, a chemoattractant for glioma, and promoting the migration via the incorporation with microglia. We plated both glioma and microglia on the outer chamber and EGF in the central chamber, which are connected through migration channels (50×10×500 μm in width, height, and length) forming gradients of chemokines for glioma. We found PAI-1 is abundantly expressed on most glioma lines. Next, we culture the U87 glioma line, which has produced PAI-1, to investigate the hypothesis that glioma-secreted PAI-1 interacts with microglia to affect glioma migration. In co-culture with microglia in a microfluidic device, the invasiveness of PAI-1 expressing U87 cell lines was increased. […] This study has uncovered a mechanism by which glioma cells exploit microglia for increased invasiveness. Specifically, glioma-derived PAI-1 acts upon microglia, which then produces IL-6 to stimulate gliomas. The PAI-1/IL-6 loop is a potential therapeutic target for the currently incurable malignant gliomas.

human neutrophils = experiment: microfluidic chemotactic model for neutrophil migration (platform validation with fMLP); type: cell-based; conditions: for neutrophils migrated back from chemoattractant / neutrophils migrated towards chemoattractant: persistence at 1 hour
Protocol: FIG. 10F. Neutrophil recruitment was quantified by comparing the fraction of cells inside the central chamber (CC) to the total number of cells in the corresponding angular chamber device (AC). The R.I. is calculated as R.I.=(CCDay i−CCDay 0)/ACDay i, where Day i is the number of cells in the central chamber and ADDay i is the number of cells in angular chamber. The recruitment index, R.I., is obtained by normalizing with the subtraction at ‘CCDay 0’ cell numbers.
We validated the assay by measuring the migration and accumulation of neutrophils toward a panel of known chemoattractant. To compare the effect of fMLP in various concentrations on neutrophil recruitment, we defined a neutrophil recruitment index, R.I. (FIG. 10B, FIG. 10F), representing the fraction of neutrophil recruited to the central chamber after loading fMLP in the central chamber. We compared the R.I. values under various soluble factors, (fMLP, A-beta, and media) (FIG. 10B) and could observe predominant neutrophil (green) recruitment with N-formyl-methionine-leucine-phenylalanine (fMLP) (10 nM) in central chamber 30 after 6 hours (FIG. 10A). A negligible number of cells entered central chamber in the absence of a chemoattractant by proving that the mechanical barrier 40 can exclude the spontaneous entrance of neutrophil. […] Neutrophils move through migration channels 60 at 18±5 μm/min and could reach central chamber in less than 30 min (FIG. 10G). We compared the migratory response of human neutrophils with various stimulators. […] Concentration-dependent changes in migration patterns in response to fMLP was primarily affect the migrating faction while there was no significant effect on persistent directionality.
(§1) Immortalized microglial cells (SV40-microglia) were purchased from Abm company (ABM Inc., Montreal, Canada). The cells were plated onto T25 cell culture flasks (BD Biosciences, San Jose, Calif., USA) and maintained in Prigrow III Medium (ABM Inc) supplemented with 50 mL FBS (Life Technologies) and 5 mL Pen/Strep (Invitrogen) in a CO2 cell culture incubator. Cell culture media were changed every 3 days until cells were confluent. For neutrophil isolation, human peripheral blood samples from healthy volunteers, aged 18 years and older, were purchased from InvivoGen. Peripheral blood was drawn in 10-ml tube containing a final concentration of 5 mM EDTA (Vacutainer; Becton Dickinson). Nucleated cells were isolated using a HetaSep gradient, followed by the EasySep Human Neutrophil Enrichment Kit (STEMCELL Technologies, Vancouver, Canada) according to the manufacturer's protocol.
After microglia loading, cells were recorded using time-lapse imaging using a fully automated Nikon TiE microscope with a heated incubator to 37° C. and 5% CO2 (10× magnification; Micro Device Instruments, Avon, Mass., USA). To achieve accurate cell tracking, the maximum time resolution of acquisition was 0.2 frames per second.
FIG. 10. Design and validation of a microfluidic chemotactic model for neutrophil migration. (10A) Neutrophils (green) instantly migrated along microchannels designed for neutrophils with a gradient of fMLP (10 nM) and accumulated in a central chamber, the source of fMLP. (10C) Time-lapse images show a simultaneous bi-directional migration of neurophils under the fMLP gradient on a single cellular level. The red arrows indicate persistent forward migration of neutrophils along the gradient of the chemoattractant and green arrows indicate the backward migration against the gradient. […] Combined data from n=5 independent experiments. Scale bars: (10A) 500 μm, (10C) 50 μm. Data represented as mean±SEM.

microglia = experiment: A-beta stimulation of microglia and analysis of cytokine release / activation markers; type: cell-based, human
From the text: To characterize the phenotype changes in microglia induced by soluble A-beta, individual microglial cells were monitored for three days using time-lapse imaging microscopy. […] Morphological changes could be observed at 48 hrs following cell seeding (FIG. 9C bottom, +A-beta). As determined by image analysis, microglial cells became large and switched into more amoeboid type as the length and area of microglial somata (cell bodies) increased in all direction (FIG. 9C). And filopodia, which is observed in resting mode microglia, could not be observed in A-beta stimulated microglia. Furthermore, exposure of microglia to soluble A-beta induced up-regulation of microglial activation markers such as CD11b (FIGS. 9D and 9E) and CD68 (FIG. 9F). […] Membrane stained microglial cells (red) immunostained with anti-CD68 to observe activation of microglial cells with A-beta.
As microglia are the predominant resident immune cells of the brain, we next determined the effects of the soluble A-beta AD microenvironment on the inflammatory activity of microglia. Exposure to soluble A-beta was associated with significant increases in chemokine release (FIG. 9B).
as §1
For immunofluorescent stain, we rinsed the cells in medium twice with DPBS. To fix, cells were incubated in fresh 4% paraformaldehyde aqueous solution (157-4, ElectronMicroscopy Sciences) for more than 15 minutes at RT followed by rinsing twice with DPBS. To permeabilize, cells were incubated in 0.1% Triton X-100 in PBST (phosphate buffered saline with 0.1% tween®20) for 15 minutes at RT. To block, cells were incubated in 3% human serum albumin for overnight in PBST at 4° C. After incubating with the primary antibody solutions for 24 hour at 4° C., the cells were washed five times. The following antibody (and dilutions) were used: anti-cd11b (1:100, Life Technologies).
Microfluidic devices 10 were cultured for 72 hours, followed by incubation in A-beta containing medium with fetal bovine serum reduced from 10% to 1%. Microglia culture on central chamber 30 were stimulated with A-beta (Sigma Aldrich) at 2.2 uM with […] serum for 72 hrs. The cytokine release profile was assayed with the Human Cytokine 37-membrane kit array (R&D systems) and the resulting cytokine release profiles were quantified with ImageJ analysis.
FIG. 9. Activation of microglial inflammation with A-beta: chemokine release, morphogenesis, and marker expression. […] Both the membrane area (9D) and the amounts of expressed CD11b (9E) increase in the activated microglia with A-beta. ndevice=3, ncell=150. Scale bars: 30 μm. All parameters are presented as mean±SEM.

human primary microglial = experiment: microfluidic chemotaxis platform for microglial motility under soluble A-beta gradient; type: cell-based; conditions: soluble monomeric and oligomeric A-beta, picomolar to nanomolar concentrations
From the text: Activated microglia initially take on various morphologies: rounded, ramified shapes, rods to amoeboid forms followed by motile activation, which complicates the visual tracking of individual cells. Previous in vitro attempts to study rat microglial migration in the presence of short-lived damaged axons could not establish long-lasting gradients and could not conclusively differentiate slow accumulation of microglia from heterogeneous activation and random navigation. We developed a novel, microfluidic chemotaxis platform to study the motility of those microglia selectively responding to stimuli in a regulated manner. To understand the specific roles of A-beta in microglial accumulation in the context of AD, we generated a week-long lasting soluble A-beta gradient, patterned insoluble surface-bound A-beta to mimic A-beta signature in AD brains, and isolated human primary microglial responding to A-beta in our platforms. We tested 200 independent conditions in a single batch, while using real time imaging of process in an array of twenty-five formatted single well plate. […] We also observed discernable co-localization of microglia to the sites of insoluble A-beta, representing A-beta plaques.

[2] = microglia exposed to soluble A-beta compared to microglia without A-beta

For “IL8: microglia-derived chemokine released on A-beta stimulation”, the “recruiting of neutrophils in the recapitulated AD environment” value (“recruiting of neutrophils” for short) [1] was “effective for recruiting neutrophils”.

In the case of “IL6: interleukin (IL)-6; microglia-derived cytokine, also used as recombinant protein”, the “recruiting of neutrophils” value [1] is reported as “effective for recruiting neutrophils” and the “invasiveness of glioma cells” value (U87 glioma line) is reported as “enhanced the invasiveness”.

With “N-formyl-methionine-leucine-phenylalanine [fMLP]” the “neutrophils migrated back from chemoattractant” value (human neutrophils; 1 nM fMLP) was 17.8±2.8%, the “neutrophils migrated towards chemoattractant” value (human neutrophils; 1 nM fMLP) was 82.2±3.4% and the “magnitude of cell recruitment (recruitment index), 10 nM compared to 1 nM” value (human neutrophils; 10 nM fMLP compared to 1 nM fMLP, central chamber, 6 hours) was 1.6 times. The “neutrophils migrated back from chemoattractant” value (human neutrophils; 10 nM fMLP) was 11.5±1.7%, the “neutrophils migrated towards chemoattractant” value (human neutrophils; 10 nM fMLP) was 88.5±3.8% and the “time to plateau of neutrophil response” value (human neutrophils; fMLP in central chamber) was at most 6 h. For the same molecule, the “decrease in the total fraction of migrating cells” value (human neutrophils; increasing fMLP from 10 nM to 1 μM) was 63%, the “speed of neutrophils moving through migration channels” value (human neutrophils; migrating towards fMLP) was 18±5 μm/min and the “time to reach central chamber” value (human neutrophils; migrating towards fMLP) was “less than 30 min”.

In the case of “CCL2: microglia-derived chemokine released on A-beta stimulation”, the “recruiting of neutrophils” value [1] is reported as “effective for recruiting neutrophils”.

For amyloid-beta [A-beta], the “microglial activation markers CD11b and CD68” value (microglia; exposure of microglia to soluble A-beta, immunostaining) was “up-regulation”, the “secretion of anti-inflammatory markers (IL-1RA, IL-4, IL-10, TGF-β)” value (microglia; microglia exposed to soluble A-beta) was “very low or no detectable” and the CCL2 concentration increase (microglia; [2]) was 1.4 fold. For the same molecule, the IL-6 concentration increase (microglia; [2]) was 1.9 fold, the IL-8 concentration increase (microglia; [2]) was 2.3 fold and the “chemokine release of CCL3/4, CCL5” value (microglia; [2]) was “new chemokine release”. The “higher neutrophil migration in central chamber” value ([1]; 10,000 microglia in central chamber) was 2.4 times, the “higher neutrophil migration in central chamber” value ([1]; 20,000 microglia in central chamber) was 1.2 times and the neutrophil migration ([1]; A-beta alone, no microglia) was “Negligible neutrophil migration”. For the same molecule, the “persistence of neutrophil migration” value ([1]; co-culture with soluble A-beta activated microglial cells) was “about 92%” and the microglial chemoattraction (human primary microglial) was “acting as a microglial chemoattractant”.

B1: CCL5: microglia-derived chemokine released on A-beta stimulation (protein, UniProt P13501 24-91, looked up)
C-C motif chemokine 5: SPYSSDTTPCCFAYIARPLPRAHIKEYFYTSGKCSNPAVVFVTRKNRQVCANPEKKWVREYINSLEMS
For B1, the “recruiting of neutrophils” value [1] was “effective for recruiting neutrophils”.
